# Measurements taken from PubChem BioAssay (NCI).
#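 Here, GI50 denotes the concentration required for 50% inhibition of growth. TGI marks complete inhibition of growth.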
# What was measured:
# Assay in all cases: NCI anticancer screen, dose series, 384-well format
# A498 renal = system: A498 renal
# HCT-15 colon = system: HCT-15 colon
# HOP-92 NSCLC = system: HOP-92 NSCLC
# IGROV1 ovarian = system: IGROV1 ovarian
# K-562 leukemia = system: K-562 leukemia
# M14 melanoma = system: M14 melanoma
# MALME-3M melanoma = system: MALME-3M melanoma
# MCF7 breast = system: MCF7 breast
# MDA-MB-435 melanoma = system: MDA-MB-435 melanoma
# OVCAR-5 ovarian = system: OVCAR-5 ovarian
# OVCAR-8 ovarian = system: OVCAR-8 ovarian
# SF-539 CNS = system: SF-539 CNS
# UO-31 renal = system: UO-31 renal
Structure (SMILES),GI50 (A498 renal) [µM],TGI (A498 renal) [µM],GI50 (HCT-15 colon) [µM],TGI (HCT-15 colon) [µM],GI50 (HOP-92 NSCLC) [µM],TGI (HOP-92 NSCLC) [µM],GI50 (IGROV1 ovarian) [µM],TGI (IGROV1 ovarian) [µM],GI50 (K-562 leukemia) [µM],TGI (K-562 leukemia) [µM],GI50 (M14 melanoma) [µM],TGI (M14 melanoma) [µM],GI50 (MALME-3M melanoma) [µM],TGI (MALME-3M melanoma) [µM],GI50 (MCF7 breast) [µM],TGI (MCF7 breast) [µM],GI50 (MDA-MB-435 melanoma) [µM],TGI (MDA-MB-435 melanoma) [µM],GI50 (OVCAR-5 ovarian) [µM],TGI (OVCAR-5 ovarian) [µM],also measured
CC[C@H](Nc1ncnc2nc[nH]c12)c1nc2cccc(F)c2c(=O)n1-c1ccccc1,4.38,23,30.1,> 100,12.2,98.5,4.31,14.9,24,82.9,> 69,> 100,20.8,> 89.1,7.96,69.5,25.6,57.1,> 57.4,> 100,GI50 (OVCAR-8 ovarian): 50.3 µM; TGI (OVCAR-8 ovarian): > 100 µM; GI50 (SF-539 CNS): 33.2 µM; TGI (SF-539 CNS): > 100 µM; GI50 (UO-31 renal): 5.12 µM
CC(C)Nc1cc(-c2c[nH]c(C(=O)N[C@H](CO)c3cccc(Cl)c3)c2)c(Cl)cn1,1.76,12.7,4.5,17.9,0.445,2.13,0.496,7.2,1.45,13.4,0.0842,0.328,0.0197,0.076,3.72,15.9,0.314,13.4,0.567,16.2,GI50 (OVCAR-8 ovarian): 5.72 µM; TGI (OVCAR-8 ovarian): 19.5 µM; GI50 (SF-539 CNS): 4.36 µM; TGI (SF-539 CNS): 16.2 µM; GI50 (UO-31 renal): 3.23 µM; TGI (UO-31 renal): 16.8 µM
